# In patent publication US8765184B2 (Stanipharm, priority 2009, dated 2014):
# Test: Stability of the active substance throughout the process by high performance liquid chromatography
# Type: physicochemical
# Settings: HPLC; purity/titre and related substance profile compared with the starting product, both tests
structure (smiles),measurement,value
CO[C@H]1C[C@@H]2CC[C@@H](C)[C@@](O)(O2)C(=O)C(=O)N2CCCC[C@H]2C(=O)O[C@H]([C@H](C)C[C@@H]2CC[C@@H](O)[C@H](OC)C2)CC(=O)[C@H](C)/C=C(\C)[C@@H](O)[C@@H](OC)C(=O)[C@H](C)C[C@H](C)/C=C/C=C/C=C/1C [sirolimus],stability throughout the process,good stability
